The values that follow come from patent US4018895A, “Aryloxyphenylpropylamines in treating depression” (Eli Lilly and Company, priority 1975, dated 1977).

Test [1] deals with dopamine uptake by synaptosomes from rat brain. Kind of test: In vitro blockade of dopamine uptake by synaptosomes from rat brain. It counts as biochemical. The conditions noted are these: dopamine 0.2 μM. An excerpt: (§1) This blockade is shown both in vitro with radioactive labelled compounds to determine the amount of monoamine uptake by synaptosomes from rat brain, and in vivo by a variety of methods. Among the physiologically active monoamines whose uptake is blocked by the compounds of this invention are included serotonin, norepinephrine and dopamine (3,4-dihydroxyphenylethylamine). […] Tables 1 and 2 which follow set forth the results of some of the in vitro determinations of the blockage of monoamine uptake by the compounds of this invention. In the tables, column 1 gives the R substituent on the 3-phenylpropylamine and columns 2-4, the concentration in micrograms per ml. that blocks the uptake of a particular amine by 50 percent for the amines--norephinephrine, serotonin, and dopamine. At the head of each column is given the concentration of the particular monoamine used in the experiment.

The test system of test [2] is hypothermia induced by the injection of apomorphine. In words: Apomorphine hypothermia antagonism test. The format is in vivo, mice. To be noted: Pre-30 min., mice. Here is the method: The apomorphine hypothermia antagonism test is carried out as follows: mice are injected with a dose of apomorphine known to reduce body temperature approximately 4° C. […] The degree of antagonism is expressed as a percent reduction (as compared with controls) of the temperature decrease produced by the injection of the apomorphine. The reserpine hypothermia reversal test is carried out as follows: groups of mice are injected with reserpine and 16.5 hours later are injected intraperitoneally with graded doses of the drug, a different dose level being given to each group of mice. Temperatures are measured at 1 hour after injection of the drug under test and again the effectiveness of the drug is expressed as a percentage decrease in the hypothermia induced by the injection of reserpine as compared with the control group. In the tablets which follow, Table 4 gives the results in the apomorphine antagonism and reserpine reversal hypothermia tests for the secondary amines of this invention. In the table, the first column gives the substituent attached to the oxygen atom at the 3 position of the propylamine chain; columns 2 to 4 the percent antagonism against apomorphine hypothermia at dose levels of 0.3, 1 and 3 mg./kg. and columns 5-7 the percent reversal of reserpine hypothermia at the same dose levels.

For test [3], the system named is norepinephrine uptake by synaptosomes from rat brain. In words: In vitro blockade of norepinephrine uptake by synaptosomes from rat brain. The format is biochemical. The conditions noted are these: norepinephrine 0.48 μM.
Text: as §1

The test system of test [4] is serotonin uptake by synaptosomes from rat brain. In words: In vitro blockade of serotonin uptake by synaptosomes from rat brain. The format is biochemical. The conditions noted are these: serotonin 0.1 μM.
Text: as §1

Test [5] deals with hypothermia induced by the injection of reserpine. Kind of test: Reserpine hypothermia reversal test. The format is in vivo, mice. The conditions noted are these: Mus musculus, ip, 1 h, Post-60 min., mice, read-out: Percent Antagonism Reserpine; for inhibition in vivo at 1 mg/kg: 1 mg./kg. intraperitoneally; for inhibition in vivo at 3 mg/kg: 3 mg./kg. intraperitoneally; for inhibition in vivo at 0.3 mg/kg: .3 mg./kg. intraperitoneally; for inhibition in vivo at 10 mg/kg: 10 mg./kg. intraperitoneally. The method, then: The apomorphine hypothermia antagonism test is carried out as follows: mice are injected with a dose of apomorphine known to reduce body temperature approximately 4° C. The compound under test is injected 1/2 hour before the injection of the apomorphine and the temperatures measured 1/2 hour after injection. The degree of antagonism is expressed as a percent reduction (as compared with controls) of the temperature decrease produced by the injection of the apomorphine. The reserpine hypothermia reversal test is carried out as follows: groups of mice are injected with reserpine and 16.5 hours later are injected intraperitoneally with graded doses of the drug, a different dose level being given to each group of mice. Temperatures are measured at 1 hour after injection of the drug under test and again the effectiveness of the drug is expressed as a percentage decrease in the hypothermia induced by the injection of reserpine as compared with the control group. In the tablets which follow, Table 4 gives the results in the apomorphine antagonism and reserpine reversal hypothermia tests for the secondary amines of this invention. In the table, the first column gives the substituent attached to the oxygen atom at the 3 position of the propylamine chain; columns 2 to 4 the percent antagonism against apomorphine hypothermia at dose levels of 0.3, 1 and 3 mg./kg. and columns 5-7 the percent reversal of reserpine hypothermia at the same dose levels.

Setting [6] is: Table 5, dimethylamino compounds, 1 mg./kg.
Setting [7] is: Table 5, dimethylamino compounds, 3 mg./kg.
[8] abbreviates: Table 5, dimethylamino compounds, 10 mg./kg.
The mark [9] stands for this setting: Table 5, dimethylamino compounds.
Setting [10] is: Mus musculus, Table 4, secondary amines, 1 mg./kg., read-out: Percent Antagonism Apomorphine.
[11] abbreviates: Mus musculus, Table 4, secondary amines, 3 mg./kg., read-out: Percent Antagonism Apomorphine.
Setting [12] is: Mus musculus, Table 5, dimethylamino compounds, 1 mg./kg., read-out: Percent Antagonism Apomorphine.
Setting [13] is: Mus musculus, Table 5, dimethylamino compounds, 3 mg./kg., read-out: Percent Antagonism Apomorphine.
Setting [14] is: Mus musculus, Table 5, dimethylamino compounds, 10 mg./kg., read-out: Percent Antagonism Apomorphine.

Counter-ions that a name gives are not always drawn. Like-named read-outs stand apart in the source and are kept apart here.

In the case of `CN(C)CCC(Oc1ccc(F)cc1F)c1ccccc1` (centres unmarked) [2,4-difluorophenyl], the “Concentration that blocks 50% of amine uptake, Dopamine” value in test [1] (Table 1, scaffold drawing 3) is 10 mcq./ml; in test [1] (Table 2, scaffold drawing 4) it was above 100 µg/mL. Besides, the “Percent Antagonism Apomorphine” value came to 53% in test [2] (Table 4, secondary amines, 1 mg./kg.); 64% in test [2] (Table 4, secondary amines, 3 mg./kg.); 20% in test [2] (Table 4, secondary amines, .3 mg./kg.); 26% in test [2] (setting [6]); 55% in test [2] (setting [7]); 98% in test [2] (setting [8]). Also, the “Concentration that blocks 50% of amine uptake, Norepinephrine” value in test [3] (Table 1, scaffold drawing 3) was “.2 mcq./ml”; in test [3] (Table 2, scaffold drawing 4), above 100 µg/mL. In addition, the “Concentration that blocks 50% of amine uptake, Serotonin” value in test [4] (Table 1, scaffold drawing 3) is “.3 mcq./ml”; in test [4] (Table 2, scaffold drawing 4), 4.5 µg/mL. In addition, the inhibition in vivo at 1 mg/kg in test [5] (Table 4, secondary amines) was 17%; in test [5] (setting [9]), 11%. Also, the inhibition in vivo at 3 mg/kg in test [5] (Table 4, secondary amines) was determined as 27%; in test [5] (setting [9]), 12%. Also, the inhibition in vivo at 0.3 mg/kg was determined as 13% in test [5] (Table 4, secondary amines) and 23% in test [5] (setting [9]). In test [5] (setting [9]), the inhibition in vivo at 10 mg/kg came to 30%.
Take `CNCCC(Oc1cccc(OC)c1)c1ccccc1.O=C(O)C(=O)O` (centres unmarked) [m-anisyl, N-methyl 3-phenyl-3-(m-methoxyphenoxy)propylamine oxalate]: in test [1] (Table 2, scaffold drawing 4), the “Concentration that blocks 50% of amine uptake, Dopamine” value was “.45 µg/mL”. The inhibition in vivo at 1 mg/kg was 15% in test [2] (setting [10]); -12% in test [2] (setting [12]); 21% in test [5] (Table 4, secondary amines); -1% in test [5] (setting [9]). Also, the inhibition in vivo at 3 mg/kg in test [2] (setting [11]) was 71%; in test [2] (setting [13]), -7%; in test [5] (Table 4, secondary amines), 21%; in test [5] (setting [9]) it was 6%. Also, the inhibition in vivo at 0.3 mg/kg in test [2] (Mus musculus, Table 4, secondary amines, .3 mg./kg., read-out: Percent Antagonism Apomorphine) was determined as 15%; in test [5] (Table 4, secondary amines), 8%. For the same compound, the inhibition in vivo at 10 mg/kg in test [2] (setting [14]) is -5%; in test [5] (setting [9]) it was 5%. For the same compound, the “Concentration that blocks 50% of amine uptake, Norepinephrine” value in test [3] (Table 2, scaffold drawing 4) is “.15 µg/mL”. Besides, in test [4] (Table 2, scaffold drawing 4), the “Concentration that blocks 50% of amine uptake, Serotonin” value was determined as 4.5 µg/mL.
As to `CN(C)CCC(Oc1ccccc1Cl)c1ccccc1.O=C(O)/C=C\C(=O)O` (centres unmarked) [o-chlorophenyl, N,N-dimethyl 3-(o-chlorophenoxy)-3-phenylpropylamine maleate], the “Concentration that blocks 50% of amine uptake, Dopamine” value in test [1] (Table 1, scaffold drawing 3) is recorded as “.2 mcq./ml”. For the same compound, the inhibition in vivo at 1 mg/kg in test [2] (setting [12]) is -10%; in test [5] (setting [9]), 3%. The inhibition in vivo at 3 mg/kg in test [2] (setting [13]) was -17%; in test [5] (setting [9]) it was 4%. Also, the inhibition in vivo at 10 mg/kg in test [2] (setting [14]) is 57%; in test [5] (setting [9]), 25%. The “Concentration that blocks 50% of amine uptake, Norepinephrine” value in test [3] (Table 1, scaffold drawing 3) is reported as “.45 mcq./ml”. The “Concentration that blocks 50% of amine uptake, Serotonin” value in test [4] (Table 1, scaffold drawing 3) was “.2 mcq./ml”.
Regarding `CCc1ccccc1OC(CCN(C)C)c1ccccc1.O=C(O)C(=O)O` (centres unmarked) [o-ethylphenyl, N,N-dimethyl 3-(o-ethylphenoxy)-3-phenylpropylamine oxalate], in test [1] (Table 1, scaffold drawing 3), the “Concentration that blocks 50% of amine uptake, Dopamine” value was above 100 mcq./ml. Further, the inhibition in vivo at 3 mg/kg in test [2] (setting [13]) was found to be 20%. Further, the inhibition in vivo at 10 mg/kg in test [2] (setting [14]) amounted to 74%. In addition, the “Concentration that blocks 50% of amine uptake, Norepinephrine” value in test [3] (Table 1, scaffold drawing 3) is given as above 100 mcq./ml. Also, the “Concentration that blocks 50% of amine uptake, Serotonin” value in test [4] (Table 1, scaffold drawing 3) is on record as 3.5 mcq./ml. For the same compound, in test [5] (setting [9]), the inhibition in vivo at 1 mg/kg was determined as 17%, the inhibition in vivo at 3 mg/kg turned out to be 13% and the inhibition in vivo at 10 mg/kg was found to be 35%.
For the compound `CC(C)c1ccccc1OC(CCN(C)C)c1ccccc1` (centres unmarked) [o-isopropylphenyl, oxalate], the “Concentration that blocks 50% of amine uptake, Dopamine” value in test [1] (Table 1, scaffold drawing 3) is given as above 100 mcq./ml. Moreover, the “Percent Antagonism Apomorphine” value in test [2] (setting [6]) was 17%. In addition, the “Percent Antagonism Apomorphine” value in test [2] (setting [7]) is listed as 39%. Moreover, the “Percent Antagonism Apomorphine” value in test [2] (setting [8]) came out at 65%. Further, the “Percent Antagonism Apomorphine” value in test [2] (Table 5, dimethylamino compounds, .3 mg./kg.) worked out at 3%. Also, the “Concentration that blocks 50% of amine uptake, Norepinephrine” value in test [3] (Table 1, scaffold drawing 3) is 1.5 mcq./ml. Besides, the “Concentration that blocks 50% of amine uptake, Serotonin” value in test [4] (Table 1, scaffold drawing 3) is listed as above 100 mcq./ml. Moreover, in test [5] (setting [9]), the inhibition in vivo at 1 mg/kg worked out at 20%, the inhibition in vivo at 3 mg/kg came to 28%, the inhibition in vivo at 10 mg/kg came out at 35% and the inhibition in vivo at 0.3 mg/kg amounted to 12%.
As for `CCOc1ccccc1OC(CCN(C)C)c1ccccc1.O=C(O)C(=O)O` (centres unmarked) [o-phenetyl, N,N-dimethyl 3-(o-ethoxyphenoxy)-3-phenylpropylamine oxalate], the “Concentration that blocks 50% of amine uptake, Dopamine” value in test [1] (Table 1, scaffold drawing 3) is given as above 100 mcq./ml. Moreover, the inhibition in vivo at 3 mg/kg in test [2] (setting [13]) came out at 13%; in test [5] (setting [9]), 16%. In addition, the inhibition in vivo at 10 mg/kg in test [2] (setting [14]) is 76%; in test [5] (setting [9]) it was 40%. In test [3] (Table 1, scaffold drawing 3), the “Concentration that blocks 50% of amine uptake, Norepinephrine” value amounted to 3 mcq./ml. In addition, the “Concentration that blocks 50% of amine uptake, Serotonin” value in test [4] (Table 1, scaffold drawing 3) turned out to be 6 mcq./ml.
For the compound `CN(C)CCC(Oc1ccccc1C(F)(F)F)c1ccccc1.Cc1ccc(S(=O)(=O)O)cc1` (centres unmarked) [o-trifluoromethylphenyl, N,N-dimethyl 3-(o-trifluoromethylphenoxy)-3-phenylpropylamine p-toluene-sulfonate], the “Concentration that blocks 50% of amine uptake, Dopamine” value in test [1] (Table 1, scaffold drawing 3) was above 100 mcq./ml; in test [1] (Table 2, scaffold drawing 4), above 100 µg/mL. Further, the inhibition in vivo at 1 mg/kg in test [2] (setting [10]) stood at 13%; in test [2] (setting [12]), 21%; in test [5] (Table 4, secondary amines) it was 9%. Further, the inhibition in vivo at 3 mg/kg was 28% in test [2] (setting [11]); 32% in test [2] (setting [13]); 8% in test [5] (Table 4, secondary amines). The results for the inhibition in vivo at 10 mg/kg in test [2] (setting [14]) and in test [5] (setting [9]) were 55% and 10%, respectively. In addition, the “Concentration that blocks 50% of amine uptake, Norepinephrine” value is 70 mcq./ml in test [3] (Table 1, scaffold drawing 3) and 6.0 µg/mL in test [3] (Table 2, scaffold drawing 4). Also, the “Concentration that blocks 50% of amine uptake, Serotonin” value is “.16 mcq./ml” in test [4] (Table 1, scaffold drawing 3) and 2.5 µg/mL in test [4] (Table 2, scaffold drawing 4).
